“And” between values parts separate entries of the source, which are not always exact repeats. Equal entries are not always repeated. “Also recorded” adds a separate entry of the source.
Key:
[1] = system: stage 2 neural stem cells; experiment: factor criticality analysis (dynamic profile analysis) of stage 3 recipe; type: cell-based, human; parameters: unit not given here; settings: other five factors present; for expression level of DLX1 when the effector is removed: 220 with all six factors; for expression level of LHX6 when the effector is removed: 240 with all six factors; for expression level of ASCL1 when the effector is removed: 1650 with all six factors
Description: To assess the impact of the elimination of each validated factor, dynamic profile analysis was used and compared the expression level of genes of interest in absence of each finalized factor while others are present. […] In the stage 3 recipe, each of the six finalized factors were removed while the other five factors remained present and the expression levels of ASCL1, DLX1 and LHX6 were assessed compared to the presence of all six factors. […] As expected, in the absence of IGF-1, the value of DLX1 increases to 410, however, ASCL1 and LHX6 decreased to 1390 and 220, respectively.

[2] = system: stage 2 neural stem cells (cells treated with stage 1 and stage 2 media); experiment: HD-DoE experiment for stage 3 recipe, optimized for ASCL1; type: cell-based, human; settings: for factor contribution on expression of ASCL1: positive, model optimized for maximum expression of ASCL1 at 1700, FIG. 9
Description: To further guide the cells to medial ganglionic eminence progenitor fate, an additional HD-DoE experiment was performed for 3 days on cells that were treated with stage 1 and stage 2 media for total of 6 days prior to start of the experiment. This experiment included 13 effectors, LDN193189, A8301, GNF5837, AZD3147, GSI-XX, Takinib, PD0325901, PD173074, BLU9931, IGF-1, MHY1485, Purmorphamine and Prostratin. In this model, we focused on maximum expression of genes expressed in neuronal progenitor cells in medial ganglionic eminence (MGE) region including ASCL1, LHX6 and DLX1 (Silberberg et al. (2016) Neuron 92:59-74). When the model was optimized for maximum expression of ASCL1 at 1700, A8301, GSI-XX, Purmorphamine and Takinib, which is an inhibitor of TAK1 pathway, had the highest factor contributions, 18.1, 14.1, 12.7 and 10.1 respectively. […]

[3] = system: human pluripotent stem cells; experiment: additional HD-DoE experiment for stage 1 (forebrain differentiation from pluripotency), optimized for FEZF2; type: cell-based; settings: dynamic profile, FIG. 6
Description: To identify the recipe for stage 1 of differentiation, 96 different combinations of effectors generated using Design-of-Experiments compression through D-optimality were robotically prepared. The effector combinations were prepared in a basal media and were subsequently added to the cells, which were then allowed to differentiate. Three days later RNA extraction was performed, and gene expression was obtained using quantitative PCR analysis. The data were normalized and modeled using partial least squares regression analysis to the effector design, resulting in the generation of gene-specific models, which after model tuning for maximal Q2 predictive power, provided explanation of the effectors ability to control the expression of individual genes, combinatorially, and individually. Solutions within the tested space could then be explored to address desirability.
To further enhance the conditions for forebrain differentiation from pluripotency, an additional HD-DoE experiment was performed. Additional gene regulatory models were obtained that were used for preparation of the differentiation protocol. The factors in this experiment included LDN193189, PD173074, BLU9931, Purmorphamine, SC79, MK2206, ZM336372, PD0325901, CHIR99021, XAV939, UCLA-GP130, Tofacitinib and GO6983. […] Dynamic profile analysis was also used to assess the interaction between the effectors.

[4] = system: forebrain-committed neural stem cells (stage 1 neural stem cells); experiment: HD-DoE 12-factor experiment for stage 2 recipe, optimized for NKX2-1; type: cell-based, human; settings: for impact on expression of NKX2-1: model maximized for NKX2-1 / dynamic profile, FIG. 7 and 8
Description: To further guide the differentiation of forebrain-committed neural stem cells to ventral forebrain neural stem cells at stage 2, a HD-DoE experiment was performed for 3 days after termination of stage 1 treatment. At this time, we focused on maximum expression of NKX2-1 that is expressed in ventral forebrain region and minimum expression of PAX6 that is expressed in dorsal forebrain region. This 12-factor experiment included LDN193189, BMP7, PD0325901, MK2206, A8301, XAV939, CHIR99021, Purmorphamine, SANT-1, AGN193109, TTNPB and GSI-XX.

MGE progenitor cells = experiment: HD-DoE 12-factor experiment for stage 4 recipe, optimized for MEF2C; type: cell-based, human
Source text: These effectors are small molecules or proteins. They are commonly used during stepwise differentiation of stem cells to specific fates. The choice of the effectors was based on current literature on neural induction in forebrain region of developing brain and differentiation of stem cells to neural progenitors.
To evaluate the effectors, experiments with at least 8 factors were designed that can assess the response of cells to 48 or more different combinations of effectors in a range of concentrations. To analyze the models, we focused on expression of genes involved in development and patterning of the forebrain interneurons maturation including LHX6 (Yuan et al. (2018) Elife, 7:e37382), DLX5 (Wang et al. (2010) J. Neuroscience 30:5334-5345), ASCL1 (Shi et al. (2016) J. Biol. Chem. 291:13560-13570). At later stages we focused on interneuron maturation genes including Parvalbumin and absence of somatostatin (Horn and Nicoll (2018) Proc. Natl. Acad. Sci. 115:589-594). The impacts of each effector on gene expression level are defined by a parameter called factor contribution that is calculated for each effector during the modeling.
To identify the recipe of stage 4 of differentiation, 48 different combinations of effectors generated using Design-of-Experiments compression through D-optimality were robotically prepared. The effector combinations were prepared in a basal media and were subsequently added to the cells, which were then allowed to differentiate. Three days later RNA extraction was performed, and gene expression was obtained using quantitative PCR analysis. The data was normalized and modeled using partial least squares regression analysis to the effector design, resulting in the generation of gene-specific models, which after model tuning for maximal predictive power, provided explanation of the effectors ability to control the expression of individual genes, combinatorically, and individually. Solutions within the tested space could then be explored to address desirability. […] Valproic Acid can inhibit histone deaceylases and increase γ-aminobutyric acid (GABA). […] GDNF is the […] Glial cell line-derived neurotrophic factor and can activate the GDNF pathway.
To find the set of factors that have the potential to optimize MEF2C in this experiment, a new assessment was done through dynamic profile analysis with focus on maximal expression of MEF2C (FIG. 20).

[5] = system: human pluripotent stem cells; experiment: HD-DoE 12-factor experiment for stage 1 recipe, gene expression by quantitative PCR after 3 days; type: cell-based
Source text: This example utilizes a method of High-Dimensional Design of Experiments (HD-DoE), as previously described in Bukys et al. (2020) […] 23:101346. The method employs computerized design geometries to simultaneously test multiple process inputs and offers mathematical modeling of a deep effector/response space. The method allows for finding combinatorial signaling inputs that control a complex process, such as during cell differentiation. It allows testing of multiple plausible critical process parameters, as such parameters impact output responses, such as gene expression. Because gene expression provides hallmark features of the phenotype of, for example, a human cell, the method can be applied to identify, and understand, which signaling pathways control cell fate. In the current example, the HD-DOE method was applied with the intent to find conditions for induction of […] neural progenitor-expressed genes, directly from the pluripotent stem cell state. To develop the recipe for each stage, the impact of agonists and antagonists of multiple signaling pathways (herein called effectors) on the expression of two sets of 53 pre-selected genes, after a 3-day treatment, has been tested and modeled. These effectors are small molecules or proteins that are commonly used during stepwise differentiation of stem cells to specific fates. Choice of the effectors were based on current literature on neural induction in forebrain region of developing brain and differentiation of stem cells to neural progenitors. To test the effectors, experiments with at least 8 factors were designed that can assess the response of cells to 48 or more different combinations of effectors in a range of concentrations. To analyze the models, we focused on expression of genes involved in development and patterning of the anterior neuroectoderm and forebrain including OTX2 (Hoch et al. (2015) Cell Reports 12:482-494), SIX3 (Lagutin et al. (2003) Genes & Development 17:368-379) and FEZF2 (Zhang et al. (2014) Development 141:4794-[…]). At later stages we focused on dorsoventral patterning of telencephalon and gene expressed in ventral forebrain including NKX2-1 and absence of PAX6 which is a dorsal forebrain marker (Stoykova et al. (2000) J. Neurosci. 20:8042-8050). The impact of each effector on gene expression level is defined by a parameter called factor contribution that is calculated for each effector during the modeling. To identify the recipe for stage 1 of differentiation, 96 different combinations of effectors generated using Design-of-Experiments compression through D-optimality were robotically prepared. The effector combinations were prepared in a basal media and were subsequently added to the cells, which were then allowed to differentiate. Three days later RNA extraction was performed, and gene expression was obtained using quantitative PCR analysis. […] Solutions within the tested space could then be explored to address desirability. Optimizing for maximal expression of SIX3 at 3300 and FEZF2 1355 expression values led to robust solutions. This model was derived from testing 12 effectors including AGN193109, LDN193189, CHIR99021, XAV939, IGF2, Purmorphamine, 4-oxo-RA, TTNPB, SR11237, FGF8, PD0325901 and […]. […] The model was also optimized for maximum expression of FEZF2 separately at 3576 expression value to find any additional factors that can boost expression of forebrain genes. […] To find the set of factors that have the potential to optimize all 3 genes in this experiment, a new assessment was done through dynamic profile analysis with focus on maximal expression of OTX2, FEZF2 and SIX3.

[6] = dynamic profile analysis, FIG. 10
[7] = dynamic profile analysis, FIG. 4

Cc1cccc(-c2nn(C(=S)Nc3ccccc3)cc2-c2ccnc3ccccc23)n1 [A8301]
expression level of DLX1 when the effector is removed [1]: did not change significantly | expression level of LHX6 when the effector is removed [1]: did not change significantly | expression level of ASCL1 when the effector is removed [1]: 1000 | impact on expression of ASCL1 [2, 6]: positive trends; also recorded: Positive impact | impact on expression of DLX1 [2, 6]: did not have a significant negative impact | impact on expression of LHX6 [2, 6]: positive trends; also recorded: Positive impact | factor contribution on expression of ASCL1 [2]: 18.1 and 18

Cc1ccc(NC(=O)Nc2cc(C(F)(F)F)ccc2F)cc1Nc1ccc2c(c1)NC(=O)/C2=C\c1ccc[nH]1 [GNF5837]
expression level of DLX1 when the effector is removed [1]: did not have a significant impact | expression level of LHX6 when the effector is removed [1]: 160 | expression level of ASCL1 when the effector is removed [1]: 1300 | factor contribution on expression of ASCL1 [2]: 9.4

COc1ccc2c(c1)c(C1=C(c3c[nH]c4ccccc34)C(=O)NC1=O)cn2CCCN(C)C [GO6983]
impact on expression of FEZF2 [3]: positive impact

NC1(c2ccc(-c3nc4ccn5c(=O)[nH]nc5c4cc3-c3ccccc3)cc2)CCC1 [MK2206]
impact on expression of FEZF2 [3]: positive impact | impact on expression of NKX2-1 [4]: increase its expression level

Cc1nn(-c2ccccc2)c(C)c1/C=N/N1CCN(Cc2ccccc2)CC1 [SANT-1]
impact on expression of NKX2-1 [4]: negative impact | factor contribution on expression of NKX2-1 ([4]; negative role, model optimized for maximum expression of NKX2-1, FIG. 7): 26.3

NC(=O)c1ccc(-c2nc(-c3ccc4c(c3)OCO4)c(-c3ccccn3)[nH]2)cc1 [SB431542]
impact on expression of MEF2C (MGE progenitor cells; dynamic profile analysis, FIG. 20): negative effect | factor contribution on expression of MEF2C (MGE progenitor cells; significant negative effect, model optimized for maximal expression of MEF2C): 7.9

C/C(=C\c1ccc(C(=O)O)cc1)c1ccc2c(c1)C(C)(C)CCC2(C)C [TTNPB]
factor contribution, important input for high expression of SIX3 ([5]; FIG. 2 legend, model optimized for maximum expression of SIX3 as printed): 23.7 | impact on expression of OTX2 [5, 7]: negative impact | impact on expression of SIX3 [5, 7]: negative impact | factor contribution on expression of FEZF2 ([5]; positive impact, model optimized for maximum expression of FEZF2): 24 | factor contribution on expression of SIX3 ([5]; significant negative effect, model optimized for maximal expression of SIX3): 21 | factor contribution on expression of OTX2 ([5]; significant negative impact, model of maximum expression of OTX2): 29 and 28.8 | impact on expression of NKX2-1 [4]: negative impact

CCCn1/c(=N/C(=O)c2cccc(C(N)=O)c2)[nH]c2ccccc21 [Takinib]
expression level of DLX1 when the effector is removed [1]: 180 | expression level of LHX6 when the effector is removed [1]: 170 | factor contribution on expression of ASCL1 [2]: 10.1
